In patent US11548923B2, “Peptide compositions and methods of use thereof for disrupting TEAD interactions” (Fred Hutchinson Cancer Center, priority 2017, dated 2023):
Entries after “also recorded” stand apart in the source; their conditions may differ. Where a SMILES comes first, the peptide text is derived from it. Bridges are numbered along the chain shown (N, C = ends).

Key:
biotinylated TEAD = target: T1, biotinylated TEAD (Homo sapiens, UniProt P28347); experiment: Surface plasmon resonance (SPR) binding of soluble peptides to captured biotinylated TEAD; settings: soluble peptides
T1 construct: GST; made in house; host or cells: Hi5 insect cells (baculovirus, BacMagic, pIEX-BAC3)

TEAD [1] = target: T2, TEAD (Homo sapiens, UniProt P28347); experiment: Mammalian surface display (SDGF vector, HEK-293 cells) TEAD-binding flow cytometry; settings: for TEAD binding of HEK-293 cells expressing SDGF-peptide: stained with 200 nM AF647-Streptavidin-TEAD; for TEAD binding of cells displaying variant versus parent peptide: HEK-293 suspension cells transfected with SDGF constructs
T2 construct: GST; made in house; host or cells: Hi5 insect cells (baculovirus, BacMagic, pIEX-BAC3)

[2] = tested on: 8×GTIIC (TEAD luciferase reporter); experiment: Cytosolic peptide expression with 8×GTIIC TEAD luciferase reporter; assay type: cell-based; settings: mCherry-T2a-peptide co-transfected with FLAG-YAP and 8×GTIIC; vs. YAP only
Excerpt: Cytosolic Peptide Expression. Peptides, FLAG-tagged or not, can be cloned into a mammalian expression vector consisting of a CMV promoter, then a monocistronic mCherry-T2a-peptide sequence. These can be transfected, along with (where indicated) pFLAG-YAP1 and 8×GTIIC-luciferase (Addgene plasmid #34615) into 293T cells. 24 hrs post-transfection, cells can be either harvested for luminescence (ONE-Glo, Promega) or Western blot (anti-FLAG M2, Sigma). Protein Transfection with dfTAT Reagent. Solution was diluted to 50 μM in PBS for a 10× working stock, for a final concentration of 5 μM in culture wells. […] For confirmation of peptide cell penetration, 293T and HeLa cells can be plated in a 96-well plate in DMEM with 10% FBS, 1× penicillin/streptomycin (Pen/Strep) and grown overnight to ˜50% confluence. Cells can be gently washed 3 times with PBS containing 1 mM CaCl2) and 0.5 mM MgCl2, then 2 times in serum-free DMEM. Wells (50 μL total) received either 5 μM (final) peptide in PBS, or PBS alone, and can also receive either 5 μM (final) dfTAT reagent in PBS, or PBS alone, before a 60 minute incubation at 37° C. and 5% CO2 in a humidified tissue culture incubator. After incubation, cells can be gently washed 3 times in PBS, which can be followed by fixation at 4° C. for 10 minutes with 4% formaldehyde in PBS. […]

YAP-TEAD interaction = target: T3, YAP-TEAD interaction (Homo sapiens, UniProt P28347); experiment: YAP-TEAD disruption co-immunoprecipitation (Myc-TEAD resin, FLAG-YAP lysate); assay type: biochemical; settings: for FLAG-YAP pull-down with Myc-TEAD resin in the presence of peptide: Silver stain and Western blot
T3 construct: expressed in transfected cells; host or cells: 293T cells (lysates)

TEAD [3] = target: T2, TEAD; experiment: TEAD binding of SDGF-displayed peptides after exposure to reducing agent; settings: 5 minutes, 20 nM TEAD
Procedure: Peptides of this disclosure were also tested to evaluate if binding to TEAD was affected by exposure of peptide to reducing conditions. […] Cultures were grown for two days followed by incubation in 10 mM GSH or 10 mM DTT. Finally, cells were stained with TEAD. FIG. 13 illustrates binding to TEAD after cells expressing SDGF-SEQ ID NO: 9 are exposed to a reducing agent. FIG. 13A illustrates a flow cytometry plot showing binding of HEK-293 suspension cells transfected with SDGF-SEQ ID NO: 1 (GFP) incubated for 5 minutes in PBS, 10 mM DTT, or 10 mM glutathione (GSH) before staining with 20 nM biotinylated TEAD and 20 nM AF647-streptavidin. FIG. 13B illustrates a flow cytometry plot showing binding of HEK-293 suspension cells transfected with SDGF-SEQ ID NO: 9 (GFP) incubated for 5 minutes in PBS, 10 mM DTT, or 10 mM glutathione (GSH) before staining with 20 nM biotinylated TEAD and 20 nM AF647-streptavidin.

[4] = target: T4, TEAD binding to surface-displayed YAP (Homo sapiens, UniProt P28347); experiment: Competitive binding of peptides to TEAD versus cell surface-displayed YAP (flow cytometry)
T4 construct: made in house; host or cells: TEAD: Hi5 insect cells
Procedure: FIG. 11D illustrates a flow cytometry plot of cells expressing SDGF-YAP that were incubated with 5 nM TEAD and then washed. Cells were immediately stained with AF647-streptavidin and analyzed for YAP-expressing cells that have bound TEAD. FIG. 11E illustrates a flow cytometry plot of cells expressing SDGF-YAP that were incubated with 5 nM TEAD and then washed. Cells were incubated on ice for 1 hour, stained with AF647-streptavidin and analyzed for YAP-expressing cells that have bound TEAD. FIG. 11F illustrates a flow cytometry plot of cells expressing SDGF-YAP that were incubated with 5 nM TEAD and then washed. […] FIG. 11G illustrates a flow cytometry plot of cells expressing SDGF-YAP that were incubated with 5 nM TEAD and then washed.

YAP:TEAD dimers = target: T5, YAP:TEAD dimers (Homo sapiens, UniProt P28347); experiment: YAP:TEAD proximity ligation assay (PLA) in HeLa cells; assay type: cell-based; settings: 5 μM peptide with 5 μM dfTAT
T5 construct: endogenous in cells; host or cells: HeLa cells
Procedure: Proximity Ligation Assay. […] HeLa cells can be seeded in an 8-well chamber slide (Nunc Lab-Tek II) in DMEM+10% FBS and 1× Pen/Strep, and can be grown overnight, reaching ˜50% confluence. Cells can be gently washed 3 times with PBS containing 1 mM CaCl2 and 0.5 mM MgCl2, then 2 times in serum-free DMEM. Wells (120 μL total) can receive either 5 μM (final) peptide in PBS, or PBS alone, and can also receive either 5 μM (final) dfTAT reagent in PBS, or PBS alone, before a 90 minute incubation at 37° C. and 5% CO2 in a humidified tissue culture incubator. After incubation, cells can be gently washed 3 times in PBS, followed by fixation at 4° C. for 10 minutes with 4% formaldehyde in PBS. […]
PLA can be performed using the Duolink In Situ Fluorescence (Far Red) kit according to manufacturer's instructions, using supplied buffers without substitution and at recommended volumes for 1 cm^2 samples. […] For quantitation of nuclear speckles in ImageJ, UV and Cy5.5 filtered images can be Z-projected (maximum intensity), and can be processed using a custom macro to identify nuclear boundaries (UV channel) and speckles (Cy5.5 channel). […]
Proximity ligation assay (PLA) in HeLa cells was performed using primary antibodies against YAP and TEAD, in which speckles (APC channel) overlapping DAPI-stained nuclei (UV channel) were produced. […] All P-values were determined by two-tailed T-test.

T3 sequence (P28347 whole entry): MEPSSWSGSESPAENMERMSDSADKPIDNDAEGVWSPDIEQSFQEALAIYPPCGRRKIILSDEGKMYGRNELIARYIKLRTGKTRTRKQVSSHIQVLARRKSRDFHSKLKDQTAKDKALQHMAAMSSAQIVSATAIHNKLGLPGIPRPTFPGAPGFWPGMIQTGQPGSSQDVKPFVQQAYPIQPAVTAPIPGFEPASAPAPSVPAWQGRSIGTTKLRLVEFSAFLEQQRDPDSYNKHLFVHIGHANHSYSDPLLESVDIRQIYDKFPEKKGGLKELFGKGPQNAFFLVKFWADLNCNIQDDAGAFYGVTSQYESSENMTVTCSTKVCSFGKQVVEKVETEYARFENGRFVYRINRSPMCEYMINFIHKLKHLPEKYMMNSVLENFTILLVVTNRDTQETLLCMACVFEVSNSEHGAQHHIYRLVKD
T1 sequence (P28347 209-426): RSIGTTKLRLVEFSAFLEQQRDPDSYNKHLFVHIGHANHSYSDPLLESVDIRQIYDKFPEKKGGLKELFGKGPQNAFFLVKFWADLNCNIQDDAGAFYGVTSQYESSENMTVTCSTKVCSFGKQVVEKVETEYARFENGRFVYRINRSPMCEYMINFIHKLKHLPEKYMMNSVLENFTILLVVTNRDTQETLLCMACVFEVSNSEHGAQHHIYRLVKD
T2 sequence (P28347 209-426): as above
T5 sequence (P28347 whole entry): as the sequence (P28347 whole entry) above
T4 sequence (P28347 209-426): as the sequence (P28347 209-426) above

`CC[C@H](C)[C@@H]1NC(=O)[C@H](C)NC(=O)[C@H](CO)NC(=O)[C@@H]2CSSC[C@@H]3NC(=O)[C@H](CCC(N)=O)NC(=O)[C@H](CC(N)=O)NC(=O)[C@H](CC(N)=O)NC(=O)[C@H](CCC(N)=O)NC(=O)[C@H](CSSC[C@H](NC(=O)[C@H](CCC(N)=O)NC(=O)[C@H](CC(N)=O)NC(=O)[C@H](CC(=O)O)NC(=O)[C@H](Cc4ccc(O)cc4)NC(=O)[C@H](CC(C)C)NC(=O)CNC(=O)[C@H](Cc4ccccc4)NC(=O)[C@H](CO)NC(=O)CN)C(=O)N[C@@H](C)C(=O)N[C@@H]([C@@H](C)O)C(=O)N[C@@H](CO)C(=O)N[C@@H](CC(=O)O)C(=O)N[C@@H](C)C(=O)N2)NC(=O)[C@H](CCCCN)NC(=O)CNC(=O)[C@H](CCC(N)=O)NC(=O)CNC(=O)[C@H](CO)NC(=O)CNC(=O)[C@H]([C@@H](C)O)NC(=O)[C@H](Cc2c[nH]c4ccccc24)NC(=O)[C@H](Cc2ccc(O)cc2)NC(=O)[C@H](CCCCN)NC(=O)[C@H](CSSC[C@@H](C(=O)N[C@@H](Cc2ccc(O)cc2)C(=O)O)NC(=O)[C@H](CCCNC(=N)N)NC3=O)NC1=O` [SEQ ID NO: 3] (H-GSFGLYDNQCATSDACSAICKYWTGSGQGKCQNNQCRCY-OH; disulfide 10-31, 16-36, 20-38) was tested, and the “affinity/binding to TEAD as compared to a peptide of SEQ ID NO: 1” value (biotinylated TEAD) was “lower binding affinity for TEAD” and the “TEAD binding of HEK-293 cells expressing SDGF-peptide” value (TEAD [1]) was “displayed binding to TEAD”.
With “GSLERLKKCCNQGLDCEEARWKCEAEALFQGKNRETCLEEC [SEQ ID NO: 40]” the “TEAD binding of cells displaying variant versus parent peptide” value (TEAD [1]) was “loss of binding to TEAD”.
In the case of “GSLERLKKCCNQGLDCEEARWKCELEAAFQGKNRETCLEEC [SEQ ID NO: 41]”, the “TEAD binding of cells displaying variant versus parent peptide” value (TEAD [1]) is reported as “loss of binding to TEAD”.
“GSLERLKKCCNQGLDCEEARWKCELEALAQGKNRETCLEEC [SEQ ID NO: 42]” was tested, and the “TEAD binding of cells displaying variant versus parent peptide” value (TEAD [1]) was “loss of binding to TEAD”.
In the case of “GSLERLKKCCNQGLDCEEARWKCELEALFQGKNRETCLEEC [SEQ ID NO: 2]”, the “TEAD binding of HEK-293 cells expressing SDGF-peptide” value (TEAD [1]) is reported as “displayed binding to TEAD”.
In the case of “GSLERLKKSSNQGLDSEEARWKSELEALFQGKNRETSLEES [SEQ ID NO: 185]”, the “TEAD binding of cells displaying variant versus parent peptide” value (TEAD [1]) is reported as “loss of binding to TEAD”.
“GSPDEYIERAKECCKKGDIQCCLRIFDESKDPNVMLICLFCW [SEQ ID NO: 12]” was tested, and the “TEAD luciferase reporter activity (relative luminescence units)” value [2] was “reduced”.
“GSPDEYIERAKECCKKGDIQCCLRYFAESGDPNVMLICLFCP [SEQ ID NO: 4]” was tested, and the “TEAD binding of cells displaying variant versus parent peptide” value (TEAD [1]) was “loss of binding to TEAD”.
In the case of “GSPDEYIERAKECCKKGDIQCCLRYFEESGDPNVALICLFCP [SEQ ID NO: 6]”, the “TEAD binding of cells displaying variant versus parent peptide” value (TEAD [1]) is reported as “loss of binding to TEAD”.
“GSPDEYIERAKECCKKGDIQCCLRYFEESGDPNVMLICAFCP [SEQ ID NO: 5]” was tested, and the “affinity/binding to TEAD as compared to a peptide of SEQ ID NO: 1” value (biotinylated TEAD) was “reduced affinity for TEAD” and the “TEAD binding of cells displaying variant versus parent peptide” value (TEAD [1]) was “marginal loss of binding to TEAD”.
“GSPDEYIERAKECCKKGDIQCCLRYFEESGDPNVMLICLACP [SEQ ID NO: 7]” was tested, and the “affinity/binding to TEAD as compared to a peptide of SEQ ID NO: 1” value (biotinylated TEAD) was “reduced affinity for TEAD”, the “TEAD binding of cells displaying variant versus parent peptide” value (TEAD [1]) was “loss of binding to TEAD” and the “FLAG-YAP pull-down with Myc-TEAD resin in the presence of peptide” value (YAP-TEAD interaction) was “not pulled down”.
“GSPDEYIERAKECCKKGDIQCCLRYFEESGDPNVMLICLFCP [SEQ ID NO: 1]” was tested, and the “TEAD binding profile of displayed peptide” value (TEAD [1]; 20 nM TEAD concentration and 2-step staining) was “apparent but weak”, the “TEAD binding of HEK-293 cells expressing SDGF-peptide” value (TEAD [1]) was “displayed binding to TEAD” and the “FLAG-YAP pull-down with Myc-TEAD resin in the presence of peptide” value (YAP-TEAD interaction) was “not pulled down”. The “inhibition of FLAG-YAP binding to Myc-TEAD resins” value (YAP-TEAD interaction; dilution series of peptide, Western blot) was “dose-dependent inhibition”, the “binding to TEAD after reducing agent treatment” value (TEAD [3]; 10 mM DTT) was “partial loss in binding to TEAD” and the “binding to TEAD after reducing agent treatment” value (TEAD [3]; 10 mM GSH) was “no loss in binding to TEAD”.
In the case of “GSPDEYIERAKECCKKQDIQCCLRIFDESKDPNVMLICLFCP [SEQ ID NO: 11]”, the “TEAD binding with the extra wash step” value (TEAD [1]; 20 nM TEAD, Extra Wash protocol) is reported as “diminished binding”.
For “GSPDEYIERAKECCKKQDIQCCLRIFDESKDPNVMLICLFCW [SEQ ID NO: 9]”, the “mean fluorescence intensity (MFI) of TEAD staining normalized to SEQ ID NO: 1” value (TEAD [1]; 20 nM TEAD, Normal and Extra Wash protocols) was “performed the best”, the “TEAD binding to YAP-displaying cells” value ([4]; YAP-displaying cells first incubated with TEAD prior to addition of peptide) was “near complete elimination of TEAD binding to YAP” and the “TEAD binding to YAP-displaying cells” value ([4]; cells incubated with peptide, then 5 nM TEAD) was “near complete elimination of TEAD binding to YAP”. The “binding to TEAD after reducing agent treatment” value (TEAD [3]; 10 mM DTT) was “no loss in binding to TEAD”, the “binding to TEAD after reducing agent treatment” value (TEAD [3]; 10 mM GSH) was “no loss in binding to TEAD” and the “YAP:TEAD PLA speckles per nucleus” value (YAP:TEAD dimers) was “significantly reduces YAP:TEAD dimers in the nucleus; also recorded: significantly reduced”.
For “GSPDEYIERAKESSKKGDIQSSLRYFEESGDPNVMLISLFSP [SEQ ID NO: 184]”, the “TEAD binding of cells displaying variant versus parent peptide” value (TEAD [1]) was “loss of binding to TEAD”.
